Experimental data reported in patent US5445941A, “Method for screening anti-osteoporosis agents” (Eli Lilly and Company, priority 1993, dated 1995).

Key:
TGFβ-3 promoter [1] = test: ER dependent induction of TGFβ-3 promoter (pB2-499) in MG63 cells; format: cell-based, human
Source text: It was known in the prior art that the ability of both estrogens and antiestrogens to influence TGFβ production is dependent on the expression of estrogen receptor (ER), but the level at which this influence is exerted was not known (i.e. transcriptional, translational or post-translational). A series of experiments were therefore performed to investigate the putative dependence on ER expression of induction of reporter gene expression using the TGFβ promoter-containing constructs of the invention.
Cultures of MG63 were prepared for co-transfection as in Example IV. One such culture was co-transfected with pB2-499 and pRSVER and another was co-transfected with pB2499 and pRSV vector plasmid (as a control).
(b) 17β-estradiol (10^-7 M)

TGFβ-3 promoter [2] = test: TGFβ-3 activation in CHO cells (pB-301 and pRSVER, CAT); format: cell-based, hamster; settings: 24 h, 0 M 10.6
TGFβ-3 promoter [3] = test: Reporter induction, pB-301 (TGFβ-3 promoter) and pRSVER in MG63 cells; format: cell-based, human; settings: control 0.7
Description: These assays were performed essentially as in Example V.
(§1) Transfected cells were treated with varying amounts and combinations of hormones and then rinsed twice with D-PBS. Cells were then lysed upon incubation with 250 μL of eukaryotic cell lysis reagent (as described in Example VI) at 4° C. for 20 min and transferred to microcentrifuge tubes by scraping with a rubber policeman. Cell lysates were centrifuged at 14,000 rpm for 1 minute to remove cell debris. Cell extracts (supernatant) were then assayed for protein content and luciferase activities.
(§2) Luciferase assays were performed as follows. 50 μL of each cell extract was added to 100 μL of reagent A buffer (containing 4.0 mM ATP/15 mM MgSO4 / 30 mM tricine buffer (pH 7.8)/ 10 mM DTT) in individual wells of a microtiter plate. 100 μL of 1 mM D(-)-luciferin (in 0.1M KPO4 (pH 7.8); Boehringer Mannheim) were added to each well and the amount of light produced measured by using a ML3000 microtiter plate luminometer (under conditions of integrate flash mode, high gain, integrate window=10 seconds, at a temperature of 22° C.). Luciferase activities were calculated as total light output relative to protein content in each cell lysate sample.

TGFβ-3 promoter [4] = test: TGFβ-3 promoter transcription in RL59.2, HeLa and COS-1 cells; format: cell-based, human; settings: RL59.2, HeLa and COS-1 (monkey kidney) cells
Description: Similar assays were performed in human endometrial cancer cells (RL59.2), human cervical cancer cells (HeLa) and monkey kidney cells (COS-1) (American Type Culture Collection, Rockville, Md.).

[5] = test system: estrogen responsive elements; settings: in vitro; cited from earlier work
[6] = test system: LDL receptor messenger RNA; settings: in vivo; cited from earlier work
TGFβ-1 promoter = test: CAT reporter expression, TGFβ-1 promoter (phTG12), MG63 cells cotransfected with pRSVER
Description: (§3) Co-transfection experiments were performed in MG63 (human osteosarcoma) cells, using the ProFection Mammalian Transfection System (Promega). […] The cells were then refed with fresh 3:1 media containing 10% csFBS. Compounds to be evaluated for their ability to modulate reporter gene expression were added at the appropriate times and assayed as described below.
(§4) Cultures of MG63 cells were transiently co-transfected with pRSVER plasmid and either phTG12, pTGF-1, or pB2-499 using the ProFection system (Promega). For each transfected cell culture, DNA-containing calcium phosphate precipitates were added dropwise to each culture dish and mixed thoroughly in the media. The pH of the media was carefully maintained between pH 7.2 and pH 7.4. Transfected cell cultures were then incubated overnight in a 5% CO2 atmosphere at 37° C. For all cultures, the precipitate was removed after overnight incubation by aspirating the media from the culture dishes, followed by rinsing each dish twice with D-PBS. For each cotransfected cell line, the buffer was replaced with 10 ml fresh medium containing 10% csFBS and one of the following compositions:
(§5) a. 10 μl ethanol (hormone vehicle)=control;
(§6) b. 10 μl 17β-estradiol (Sigma) ("estradiol") at a concentration of 10^-4 M in ethanol;
(§7) d. 10 μl Tamoxifen (Sigma) at a concentration of 10^-4 M in ethanol.
(§8) After 24 h incubation with these hormonal preparations (or the vehicle control), cells were washed twice with D-PBS. The cells were then scraped from the culture dishes using a rubber policeman and 1 ml of D-PBS. Cells were collected by centrifugation at 8,000 rpm for 2 minutes in a tabletop centrifuge (MicroMax Model, IEC, Newark, N.Y.). The supernatant was removed and the cell pellets were resuspended in 150 μL of a 0.25M Tris-HCl solution (pH 7.8). Cells were lysed by three cycles of freezing in a dry ice/ethanol bath and thawing in a water bath at 37° C. water bath (for 3 minutes each cycle). Lysed cell preparations were centrifuged at 15,000 rpm for 5 minutes at 4° C. to remove cell debris. Supernatants containing the soluble cell lysate were transferred to a new set of tubes for assaying chloramphenicol acetyltransferase (CAT) activity.
Before performing CAT assays on such cell lysates, the protein content of each lysate was first determined using a commercially-available assay (BioRad Laboratories, Richmond, Calif.). An amount of each cell lysate containing 100 μg total protein was then mixed with CAT assay buffer (0.4M Tris-HCl (pH 7.8)/ 0.5 mM acetyl-CoA (Boehringer Mannheim)/ 0.1 μCi D-threo-(dichloroacetyl-1,2-[^14 C]-chloramphenicol) for 15 hours. After this incubation, reactions were stopped by vigorously extracting the reaction mixture with 900 μL ethyl acetate. The organic and aqueous phases were separated by brief centrifugation at 14,000 rpm for 1 minute, and approximately 800 μL of the organic phase was transferred to a new set of tubes. Ethyl acetate was evaporated to concentrate the CAT-catalyzed reaction products.
Acetylated and unacetylated chloramphenicol species were resolved by thin layer chromatography using a mixture of 95:5 (v/v) chloroform:methanol as the ascending buffer.

[7] = animal models and humans; cited from earlier work
TGFβ-1 mRNA = settings: HEC-50, 1% ctFBS; cited from earlier work
[8] = test system: estrogen responsive element (ERE) of the vitellogenin promoter; test: Luciferase reporter induction, pGL2ERELUC (vitellogenin ERE) and pRSVER in MG63 cells; format: cell-based, human; settings: for reporter gene expression, pGL2ERELUC: control 1.7
Source text: Complementary oligonucleotides corresponding to the estrogen-responsive element (ERE) from the Xenopus laevis vitellogenin Az gene promoter (corresponding to positions -341 to -310; Metzger et al., 1988, Nature 334: 31-36) were designed, synthesized and annealed to form a double-stranded region that is an estrogen responsive element essentially as described in Example I. A sequence comprising an XhoI restriction enzyme recognition site was synthesized to be flanking the ERE sequences, the element having the following nucleotide sequence (shown as SEQ ID NOS:8 and 9, respectively):
The double-stranded ERE was subcloned into XhoI-digested […] (Promega) whereby the luciferase gene was placed under the transcriptional influence of the ERE. This plasmid was designated pGL2ERELUC and used in further experiments as described below (Example VI).
Similar assays were performed using cultures of MG63 cells transiently transfected with pGL2ERELUC and pRSVER.
as §1, §2

TGFβ-2 promoter = test: CAT reporter expression, TGFβ-2 promoter (pTGF-1), MG63 cells cotransfected with pRSVER; settings: TGFβ-2 promoter
Description: as §3, §4, §5, §6, §7, §8
(§9) Before performing CAT assays on such cell lysates, the protein content of each lysate was first determined using a commercially-available assay (BioRad Laboratories, Richmond, Calif.). […]

TGFβ-3 promoter [9] = test: Dose response of TGFβ-3 promoter (pB-301) CAT induction in MG63 cells with pRSVER; settings: for CAT activity: vehicle 0.85
Description: For each group of twelve cultures, the particular estrogen or antiestrogen compound was tested in replicate cultures at […], varying in tenfold increments from 10^-9 M to 10^-5 M, as well as one set of replicate cultures treated with vehicle only (for a total of twelve cultures per experimental treatment). Hormones were dissolved in ethanol and applied to the cultures in media as described above. The four estrogens and antiestrogens tested were:
a. 17β-estradiol (Sigma Chemical Corp., St. Louis, Mo.);

TGFβ-3 promoter [10] = test: TGFβ-3 activation in MCF-7 cells (pTGFβ-301LUC, luciferase); format: cell-based, human; settings: 24 h, 0 M 7.8
Description: Cultures of MCF-7 cells were transiently transfected with pTGFβ-301LUCas described in Example IV.
After 24 hours of treatment with the hormonal preparation (or the vehicle control), the cells were washed, harvested, lysed and assayed for LUC activity according to the method of Example VI.

TGFβ-3 promoter [11] = test: CAT reporter expression, TGFβ-3 promoter (pB-499), MG63 cells cotransfected with pRSVER
Description: as §3, §4, §5, §6, §7, §8, §9

[12] = Homo sapiens, MG-63, 24 h, read-out: Fold Ind.

## C[C@]12CC[C@@H]3c4ccc(O)cc4CC[C@H]3[C@@H]1CC[C@@H]2O [estradiol, 17β-estradiol]
TGFβ-3 promoter [1]; lack of ER expression
  effect of lack of ER expression (in words): virtually abolishes expression of TGFβ-3
TGFβ-3 promoter [1]; no ER (pRSV vector), estradiol 10^-7 M, raloxifene 2×10^-6 M, vehicle 0.9
  reporter gene expression, Control Plasmid: 1.0
TGFβ-3 promoter [1]; pRSVER, estradiol 10^-7 M, raloxifene 2×10^-6 M, vehicle 1.3
  reporter gene expression, ER Expression Plasmid: 4.6
TGFβ-3 promoter [2]; 10^-5 M
  CAT activity: 33.3
TGFβ-3 promoter [2]; 10^-6 M
  CAT activity: 32.9
TGFβ-3 promoter [2]; 10^-7 M
  CAT activity: 29.4
TGFβ-3 promoter [2]; 10^-8 M
  CAT activity: 22.6
TGFβ-3 promoter [2]; 10^-9 M
  CAT activity: 11.9
TGFβ-3 promoter [3]; 10^-5 M
  reporter gene expression, pB-301: 8.0
TGFβ-3 promoter [3]; 10^-6 M
  reporter gene expression, pB-301: 5.2
TGFβ-3 promoter [3]; 10^-7 M
  reporter gene expression, pB-301: 5.5
TGFβ-3 promoter [3]; 10^-8 M
  reporter gene expression, pB-301: 3.2
TGFβ-3 promoter [3]; 10^-9 M
  reporter gene expression, pB-301: 1.1
TGFβ-3 promoter [4]
  transcription initiated by the TGFβ-3 promoter (in words): induced
[5]
  binding of estrogen receptor complex to estrogen responsive elements (in words): bind in vitro to DNA binding domains called estrogen responsive elements
[6]
  LDL receptor messenger RNA (in words): induces LDL receptor messenger RNA in vivo
TGFβ-1 promoter; [12]
  fold induction at 0.1 µM: 0.7
TGFβ-1 promoter; TGFβ-1 promoter, 10 μl of 10^-4 M in 10 ml medium, 24 h, control […]
  Act. (relative CAT activity): 4.7
TGFβ-1 promoter; positions -1032 to +727
  response of the TGFβ-1 promoter region (in words): no response
[7]
  serum lipid lowering effect (in words): serum lipid lowering effect
TGFβ-1 mRNA
  TGFβ-1 mRNA concentration (in words): Decreased concentrations of TGFβ-1 mRNA
[8]
  induction of vitellogenin gene transcription (in words): strongly induced
[8]; 10^-5 M
  reporter gene expression, pGL2ERELUC: 6.5
[8]; 10^-6 M
  reporter gene expression, pGL2ERELUC: 6.2
[8]; 10^-7 M
  reporter gene expression, pGL2ERELUC: 5.9
[8]; 10^-8 M
  reporter gene expression, pGL2ERELUC: 5.5
[8]; 10^-9 M
  reporter gene expression, pGL2ERELUC: 5.8
TGFβ-2 promoter; 10 μl of 10^-4 M in 10 ml medium, 24 h, control 0.8
  Act. (relative CAT activity): 1.29
TGFβ-2 promoter; comparison with control, 1440 min, 0.1 µM
  Fold Ind.: 1.6 fold
TGFβ-3 promoter [9]; 10^-5 M, 24 h
  CAT activity: 3.4
TGFβ-3 promoter [9]; 10^-6 M, 24 h
  CAT activity: 4.3
TGFβ-3 promoter [9]; 10^-7 M, 24 h
  CAT activity: 1.6
TGFβ-3 promoter [9]; 10^-8 M, 24 h
  CAT activity: 1.1
TGFβ-3 promoter [9]; 10^-9 M, 24 h
  CAT activity: 0.96
TGFβ-3 promoter [9]; MG63 cells
  ED50 (in words): two orders of magnitude higher than that of raloxifene
  TGFβ-3 promoter activation (in words): least potent inducer
TGFβ-3 promoter [9]; mg63 cells, 24 h
  induction of reporter gene transcription/expression: 4 fold
TGFβ-3 promoter [10]; 10^-5 M
  Luciferase activity: 122 thousands of units
TGFβ-3 promoter [10]; 10^-6 M
  Luciferase activity: 101.3 thousands of units
TGFβ-3 promoter [10]; 10^-7 M
  Luciferase activity: 107.3 thousands of units
TGFβ-3 promoter [10]; 10^-8 M
  Luciferase activity: 9.1 thousands of units
TGFβ-3 promoter [10]; 10^-9 M
  Luciferase activity: 19.2 thousands of units
TGFβ-3 promoter [11]; [12]
  fold induction at 0.1 µM: 2.8
TGFβ-3 promoter [11]; TGFβ-3 promoter, 10 μl of 10^-4 M in 10 ml medium, 24 h, control 0.7
  Act. (relative CAT activity): 2.1
